In patent US5725838A, “Radiolabeled D4 receptor ligands” (Resolution Pharmaceuticals, Inc., priority 1996, dated 1998) one finds Ki data, which are given here for one compound.

Structures are written as SMILES.

For test [1], the target named is T1, human D4 receptor (D4.2 sub-type) (Homo sapiens, UniProt P21917, DEL265-296).
T1 construct: expressed in transfected cells; host or cells: HEK 298 (so in the source); probably HEK 293), stably transfected, membrane preparation
T1 sequence (P21917 with tags, fused parts or gaps DEL265-296): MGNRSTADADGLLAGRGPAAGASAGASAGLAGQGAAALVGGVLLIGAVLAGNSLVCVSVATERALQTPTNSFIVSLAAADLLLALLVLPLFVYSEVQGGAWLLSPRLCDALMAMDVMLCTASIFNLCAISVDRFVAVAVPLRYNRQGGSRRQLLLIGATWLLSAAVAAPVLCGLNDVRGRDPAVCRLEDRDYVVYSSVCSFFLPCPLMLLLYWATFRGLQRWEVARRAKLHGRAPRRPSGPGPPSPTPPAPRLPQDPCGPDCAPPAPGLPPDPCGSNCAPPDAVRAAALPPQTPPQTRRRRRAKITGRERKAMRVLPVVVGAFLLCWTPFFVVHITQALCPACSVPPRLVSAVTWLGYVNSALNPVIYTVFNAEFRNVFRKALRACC
The test is described as follows: D4 receptor binding, 3H-spiperone displacement. The following applies: membranes of cells stably transfected with human D4.2; 0.25 nM 3H-spiperone; Cheng-Prusoff. The protocol:
The potency of the test compound to reduce ^3 H-spiperone binding directly correlated to its binding affinity for the receptor.
Individual filter disks were put in scintillation vials (Biovials, Bechman).
Ki was calculated by the Cheng and Prustoff transformation: […]
where [L] is the concentration of ^3 H-spiperone used in the assay and KD is the dissociation constant of ^3 H-spiperone determined independently under the same binding conditions.

The target of test [2] is T2, human D2 receptor (short isoform) (Homo sapiens, UniProt P14416).
T2 construct: expressed in transfected cells; host or cells: GH4 C1 (rat pituitary) cells, stably transfected, membrane preparation
Put plainly: D2 receptor binding, 3H-spiperone displacement. Particulars: membranes of GH4 C1 (rat pituitary) cells stably transfected with human D2 short isoform; 0.25 nM 3H-spiperone; Cheng-Prusoff. The protocol:
D2 and D4 receptor-binding affinities of the compounds of Example 3 were evaluated as described in WO95/17400 (incorporated herein by reference) for their ability to reduce binding of ^3 H-spiperone as compared to the reference compound clozapine. The potency of the test compound to reduce ^3 H-spiperone binding directly correlated to its binding affinity for the receptor.
Briefly, the D4 receptor was utilized in the form of membrane preparations obtained from […] cells stably transfected with human D4 receptor (D4.2 sub-type). […] Ready Protein Plus liquid scintillant (5 ml, Beckman) was added and the vials counted by liquid scintillation spectrophotometry (Beckman LSC 6500) after equilibrating for three hours at room temperature to determine total binding (Br).
Non-specific binding for D4 was assayed by incubating membrane homogenate, ^3 H-spiperone and fresh dopamine. Filtrate was counted using the same procedure as in the total binding assay described above to give the non-specific binding value (NSB). Non-specific binding for D2 was similarly assessed, with the exception that (-)-sulpiride was used in place of dopamine.
To assess displacement, membrane homogenate was incubated with ^3 H-spiperone and test compound dissolved in DMSO. Filtrate was counted using the same procedure as in the total binding assay described above, to give the displacement binding value (BD). […]

T2 sequence (P14416 1-414 isoform P14416-2): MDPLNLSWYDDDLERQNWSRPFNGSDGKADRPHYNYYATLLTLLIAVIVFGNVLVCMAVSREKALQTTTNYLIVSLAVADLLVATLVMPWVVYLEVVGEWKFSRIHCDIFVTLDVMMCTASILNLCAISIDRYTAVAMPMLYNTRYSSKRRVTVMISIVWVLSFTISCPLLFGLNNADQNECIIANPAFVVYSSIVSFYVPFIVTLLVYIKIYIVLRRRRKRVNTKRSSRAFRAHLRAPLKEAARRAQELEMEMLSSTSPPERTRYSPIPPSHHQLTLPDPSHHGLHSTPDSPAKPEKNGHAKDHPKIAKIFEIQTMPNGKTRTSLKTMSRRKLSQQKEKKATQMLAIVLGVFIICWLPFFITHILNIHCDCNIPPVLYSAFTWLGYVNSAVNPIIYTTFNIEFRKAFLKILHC

By Ki is commonly meant a dissociation constant, usually derived from enzyme kinetics or from competition with a known ligand. Higher therefore signals weaker binding. `Ic1ccc(N2CCN(Cc3c[nH]c4ncccc34)CC2)cc1` [3-[4-(4-iodophenyl)-piperazin-1-yl]methyl-1H-pyrrolo[2,3-b]pyridine]: the values for the inhibition constant (Ki) in test [1] and in test [2] were 0.00016 µM and 2.37 µM, respectively.
